Laboratory results published in patent US11077090B2, “Compounds and compositions and uses thereof” (Sunovion Pharmaceuticals Inc., priority 2016, dated 2021).
Structures can show the parent of a compound that is named as a salt. Where two headings read alike, the source gives them in different places.

Columns and labels:
compound-treated mice = assay: Neuropharmacological assay (SmartCube): behavioral activity signature and minimal effective dose; format: in vivo; conditions: for Potency: minimal effective dose (MED), binned / minimal effective dose: MED = dose having 50% or more total activity; for AD: ADHD (probability of activity signature) / AG: analgesic (probability of activity signature) / AX: anxiolytic (probability of activity signature) / CE: cognitive enhancer (probability of activity signature) / DP: anti-depressant (probability of activity signature) / MS: mood stabilizer (probability of activity signature) / PS: anti-psychotic (probability of activity signature) / SD: sedative hypnotic (probability of activity signature) / UN: uncharacterized CNS activity (probability of activity signature): i.p. 15 min before test, most efficacious dose(s); for minimal effective dose: Mus musculus, ip
Procedure, shortened: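 Mice dosed i.p. 15 min before test, compound in N-methyl-2-pyrrolidone/PEG/propylene glycol, 3 doses; video-captured behavior matched to reference-drug signatures, giving per-class probabilities at most efficacious dose. MED from doses typically 0.3–30 mpk, defined as lowest dose with ≥50% total activity.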

Male C57Bl/6J mice = assay: Marble burying test; format: in vivo; set-up: key: −: No reduction in number of marbles buried; +: Significant reduction in number of marbles buried (P < 0.05 vs vehicle)
Description: The marble burying assay is used to evaluate the anxiolytic activity of a test compound. After placement in a novel cage containing glass marbles, mice will bury the marbles. Acute administration of anxiolytic agents, as well as antidepressants, decrease this activity at non-sedating doses. Male C57Bl/6J mice from Jackson Laboratories were used in this study and were acclimatized to the experimental room for at least 1 hour prior to testing. Mice (n=10 per group) were administered sterile water or test compound intraperitoneally (i.p.) or orally by gavage (p.o.), or the positive control chlordiazepoxide (15 mg/kg, i.p.), in 10 mL/kg injection volumes, and returned to their home cages for a 30-minute pretreatment period. The mice were then placed individually in clean cages, containing hard wood bedding and twenty black marbles placed in spaced rows of 4×5. After a 30-minute test session, the number of buried marbles was counted. A marble was considered buried if it was pushed at least two thirds into the bedding. Locomotor activity was monitored by measuring the distance traveled using an overhead camera and Video Tracker Software (ViewPoint Life Sciences Software, France). A reduction in the number of marbles buried relative to the vehicle condition indicates an anxiolytic drug-like effect.

[1] = read-out: Potency: minimal effective dose (MED)
[2] = read-out: Potency: minimal effective dose (MED), binned

SMILES: C[C@@H]1OCc2cccc(Cl)c2[C@H]1N (single isomer, unassigned) [Example 160]
- Potency: minimal effective dose (MED), binned (compound-treated mice): A (≤3 mpk)
- AD: ADHD (probability of activity signature) (compound-treated mice): + (LOQ ≤ + <5%)
- AG: analgesic (probability of activity signature) (compound-treated mice): ++ (5% ≤ ++ <25%)
- AX: anxiolytic (probability of activity signature) (compound-treated mice): ++ (5% ≤ ++ <25%)
- CE: cognitive enhancer (probability of activity signature) (compound-treated mice): ++ (5% ≤ ++ <25%)
- DP: anti-depressant (probability of activity signature) (compound-treated mice): + (LOQ ≤ + <5%)
- MS: mood stabilizer (probability of activity signature) (compound-treated mice): + (LOQ ≤ + <5%)
- PS: anti-psychotic (probability of activity signature) (compound-treated mice): ++ (5% ≤ ++ <25%)
- SD: sedative hypnotic (probability of activity signature) (compound-treated mice): + (LOQ ≤ + <5%)
- UN: uncharacterized CNS activity (probability of activity signature) (compound-treated mice): +++ (25% ≤ +++ <50%)
- Marbles Buried (Male C57Bl/6J mice; 3 mg/kg (i.p.)): −
- Marbles Buried (Male C57Bl/6J mice; 10 mg/kg (i.p.)): +

SMILES: CC[C@@H]1OCc2ccccc2[C@H]1N (single isomer, unassigned) [Compound 195]
- Marbles Buried (Male C57Bl/6J mice; 1 mg/kg (i.p.)): −

SMILES: CC[C@@H]1OCc2ccccc2[C@H]1N (single isomer, unassigned) [Example 195]
- Potency: minimal effective dose (MED), binned (compound-treated mice): A (≤3 mpk)
- AD: ADHD (probability of activity signature) (compound-treated mice): + (LOQ ≤ + <5%)
- AG: analgesic (probability of activity signature) (compound-treated mice): ++ (5% ≤ ++ <25%)
- AX: anxiolytic (probability of activity signature) (compound-treated mice): ++ (5% ≤ ++ <25%)
- CE: cognitive enhancer (probability of activity signature) (compound-treated mice): ++ (5% ≤ ++ <25%)
- DP: anti-depressant (probability of activity signature) (compound-treated mice): ++ (5% ≤ ++ <25%)
- MS: mood stabilizer (probability of activity signature) (compound-treated mice): + (LOQ ≤ + <5%)
- PS: anti-psychotic (probability of activity signature) (compound-treated mice): ++ (5% ≤ ++ <25%)
- SD: sedative hypnotic (probability of activity signature) (compound-treated mice): ++ (5% ≤ ++ <25%)
- UN: uncharacterized CNS activity (probability of activity signature) (compound-treated mice): ++++ (50% ≤ ++++)
- Marbles Buried (Male C57Bl/6J mice; 3 mg/kg (i.p.)): −
- Marbles Buried (Male C57Bl/6J mice; 10 mg/kg (i.p.)): +

SMILES: C[C@@H]1OCc2cccc(Cl)c2[C@H]1N (single isomer, unassigned) [Compound 160]
- Marbles Buried (Male C57Bl/6J mice; 1 mg/kg (i.p.)): −

SMILES: Cl.NC1COCc2ccc3c(c21)C1CCC3C1 (single isomer, unassigned) [Example 161]
- Potency: minimal effective dose (MED), binned (compound-treated mice): B (>3 to 10 mpk)
- AD: ADHD (probability of activity signature) (compound-treated mice): + (LOQ ≤ + <5%)
- AG: analgesic (probability of activity signature) (compound-treated mice): ++ (5% ≤ ++ <25%)
- AX: anxiolytic (probability of activity signature) (compound-treated mice): +++ (25% ≤ +++ <50%)
- CE: cognitive enhancer (probability of activity signature) (compound-treated mice): ++ (5% ≤ ++ <25%)
- DP: anti-depressant (probability of activity signature) (compound-treated mice): ++ (5% ≤ ++ <25%)
- MS: mood stabilizer (probability of activity signature) (compound-treated mice): + (LOQ ≤ + <5%)
- PS: anti-psychotic (probability of activity signature) (compound-treated mice): ++ (5% ≤ ++ <25%)
- SD: sedative hypnotic (probability of activity signature) (compound-treated mice): + (LOQ ≤ + <5%)
- UN: uncharacterized CNS activity (probability of activity signature) (compound-treated mice): ++ (5% ≤ ++ <25%)

SMILES: Cc1ccc2c(c1)[C@@H](N)CCOC2 (single isomer, unassigned) [Example 116]
- minimal effective dose (compound-treated mice; [1]): 3 to 10 mg/kg
- AD: ADHD (probability of activity signature) (compound-treated mice): + (LOQ ≤ + <5%)
- AG: analgesic (probability of activity signature) (compound-treated mice): ++ (5% ≤ ++ <25%)
- AX: anxiolytic (probability of activity signature) (compound-treated mice): ++ (5% ≤ ++ <25%)
- CE: cognitive enhancer (probability of activity signature) (compound-treated mice): ++ (5% ≤ ++ <25%)
- DP: anti-depressant (probability of activity signature) (compound-treated mice): ++ (5% ≤ ++ <25%)
- MS: mood stabilizer (probability of activity signature) (compound-treated mice): + (LOQ ≤ + <5%)
- PS: anti-psychotic (probability of activity signature) (compound-treated mice): ++ (5% ≤ ++ <25%)
- SD: sedative hypnotic (probability of activity signature) (compound-treated mice): +++ (25% ≤ +++ <50%)
- UN: uncharacterized CNS activity (probability of activity signature) (compound-treated mice): +++ (25% ≤ +++ <50%)

SMILES: CC1(C)OCC(N)c2ccccc21.Cl (stereo not shown) [Example 29]
- minimal effective dose (compound-treated mice; [1]): 10 to 30 mg/kg
- AD: ADHD (probability of activity signature) (compound-treated mice): + (LOQ ≤ + <5%)
- AG: analgesic (probability of activity signature) (compound-treated mice): +++ (25% ≤ +++ <50%)
- AX: anxiolytic (probability of activity signature) (compound-treated mice): ++ (5% ≤ ++ <25%)
- CE: cognitive enhancer (probability of activity signature) (compound-treated mice): + (LOQ ≤ + <5%)
- DP: anti-depressant (probability of activity signature) (compound-treated mice): ++ (5% ≤ ++ <25%)
- MS: mood stabilizer (probability of activity signature) (compound-treated mice): + (LOQ ≤ + <5%)
- PS: anti-psychotic (probability of activity signature) (compound-treated mice): + (LOQ ≤ + <5%)
- SD: sedative hypnotic (probability of activity signature) (compound-treated mice): + (LOQ ≤ + <5%)
- UN: uncharacterized CNS activity (probability of activity signature) (compound-treated mice): + (LOQ ≤ + <5%)

SMILES: Cl.NC1COCc2ccc3ccccc3c21 (stereo not shown) [Example 13]
- minimal effective dose (compound-treated mice; [1]): 3 to 10 mg/kg
- AD: ADHD (probability of activity signature) (compound-treated mice): + (LOQ ≤ + <5%)
- AG: analgesic (probability of activity signature) (compound-treated mice): ++ (5% ≤ ++ <25%)
- AX: anxiolytic (probability of activity signature) (compound-treated mice): ++ (5% ≤ ++ <25%)
- CE: cognitive enhancer (probability of activity signature) (compound-treated mice): ++ (5% ≤ ++ <25%)
- DP: anti-depressant (probability of activity signature) (compound-treated mice): ++ (5% ≤ ++ <25%)
- MS: mood stabilizer (probability of activity signature) (compound-treated mice): + (LOQ ≤ + <5%)
- PS: anti-psychotic (probability of activity signature) (compound-treated mice): ++ (5% ≤ ++ <25%)
- SD: sedative hypnotic (probability of activity signature) (compound-treated mice): + (LOQ ≤ + <5%)
- UN: uncharacterized CNS activity (probability of activity signature) (compound-treated mice): ++++ (50% ≤ ++++)

SMILES: CCN(C)C(=O)Oc1ccc2c(c1)CO[C@@H](C)[C@H]2N.Cl [Example 279]
- minimal effective dose (compound-treated mice; [2]): 3 to 10 mg/kg
- AD: ADHD (probability of activity signature) (compound-treated mice): + (LOQ ≤ + <5%)
- AG: analgesic (probability of activity signature) (compound-treated mice): + (LOQ ≤ + <5%)
- AX: anxiolytic (probability of activity signature) (compound-treated mice): + (LOQ ≤ + <5%)
- CE: cognitive enhancer (probability of activity signature) (compound-treated mice): + (LOQ ≤ + <5%)
- DP: anti-depressant (probability of activity signature) (compound-treated mice): ++ (5% ≤ ++ <25%)
- MS: mood stabilizer (probability of activity signature) (compound-treated mice): +++ (25% ≤ +++ <50%)
- PS: anti-psychotic (probability of activity signature) (compound-treated mice): ++ (5% ≤ ++ <25%)
- SD: sedative hypnotic (probability of activity signature) (compound-treated mice): ++ (5% ≤ ++ <25%)
- UN: uncharacterized CNS activity (probability of activity signature) (compound-treated mice): ++ (5% ≤ ++ <25%)

SMILES: CN[C@@H]1CO[C@H](C)c2ccccc21 (relative stereo) [Example 240, cis-N,1-dimethylisochroman-4-amine hydrochloride]
- minimal effective dose (compound-treated mice; [2]): 3 to 10 mg/kg
- AD: ADHD (probability of activity signature) (compound-treated mice): + (LOQ ≤ + <5%)
- AG: analgesic (probability of activity signature) (compound-treated mice): ++ (5% ≤ ++ <25%)
- AX: anxiolytic (probability of activity signature) (compound-treated mice): ++ (5% ≤ ++ <25%)
- CE: cognitive enhancer (probability of activity signature) (compound-treated mice): ++ (5% ≤ ++ <25%)
- DP: anti-depressant (probability of activity signature) (compound-treated mice): ++ (5% ≤ ++ <25%)
- MS: mood stabilizer (probability of activity signature) (compound-treated mice): + (LOQ ≤ + <5%)
- PS: anti-psychotic (probability of activity signature) (compound-treated mice): ++ (5% ≤ ++ <25%)
- SD: sedative hypnotic (probability of activity signature) (compound-treated mice): ++ (5% ≤ ++ <25%)
- UN: uncharacterized CNS activity (probability of activity signature) (compound-treated mice): +++ (25% ≤ +++ <50%)

SMILES: CN[C@@H]1COCc2ccc(Cl)c(Cl)c21 [Example 147]
- minimal effective dose (compound-treated mice; [1]): 3 to 10 mg/kg
- AD: ADHD (probability of activity signature) (compound-treated mice): + (LOQ ≤ + <5%)
- AG: analgesic (probability of activity signature) (compound-treated mice): ++ (5% ≤ ++ <25%)
- AX: anxiolytic (probability of activity signature) (compound-treated mice): ++ (5% ≤ ++ <25%)
- CE: cognitive enhancer (probability of activity signature) (compound-treated mice): + (LOQ ≤ + <5%)
- DP: anti-depressant (probability of activity signature) (compound-treated mice): ++ (5% ≤ ++ <25%)
- MS: mood stabilizer (probability of activity signature) (compound-treated mice): + (LOQ ≤ + <5%)
- PS: anti-psychotic (probability of activity signature) (compound-treated mice): + (LOQ ≤ + <5%)
- SD: sedative hypnotic (probability of activity signature) (compound-treated mice): + (LOQ ≤ + <5%)
- UN: uncharacterized CNS activity (probability of activity signature) (compound-treated mice): ++++ (50% ≤ ++++)

SMILES: COc1ccc2c(c1)[C@H](N)COC2 (single isomer, unassigned) [Example 121]
- minimal effective dose (compound-treated mice; [1]): < 3 mg/kg
- AD: ADHD (probability of activity signature) (compound-treated mice): + (LOQ ≤ + <5%)
- AG: analgesic (probability of activity signature) (compound-treated mice): ++ (5% ≤ ++ <25%)
- AX: anxiolytic (probability of activity signature) (compound-treated mice): ++ (5% ≤ ++ <25%)
- CE: cognitive enhancer (probability of activity signature) (compound-treated mice): ++ (5% ≤ ++ <25%)
- DP: anti-depressant (probability of activity signature) (compound-treated mice): ++ (5% ≤ ++ <25%)
- MS: mood stabilizer (probability of activity signature) (compound-treated mice): + (LOQ ≤ + <5%)
- PS: anti-psychotic (probability of activity signature) (compound-treated mice): ++ (5% ≤ ++ <25%)
- SD: sedative hypnotic (probability of activity signature) (compound-treated mice): ++ (5% ≤ ++ <25%)
- UN: uncharacterized CNS activity (probability of activity signature) (compound-treated mice): +++ (25% ≤ +++ <50%)
